Test results as given in ChEMBL document CHEMBL4270604, “Hedgehog pathway inhibitors of the acylthiourea and acylguanidine class show antitumor activity on colon cancer in vitro and in vivo” (Eur J Med Chem, 2018).

Experiments:
[1] = target: T1, CYP1A2 (Homo sapiens, UniProt P05177); assay: Inhibition of recombinant human CYP1A2 expressed in insect cell microsomes at 5 uM using Luciferin-ME as substrate preincubated for 10 mins followed by NADPH addition measured after 30 mins by luminometric method; format: ADME; conditions: probe Luciferin-ME
T1 sequence (P05177 whole entry): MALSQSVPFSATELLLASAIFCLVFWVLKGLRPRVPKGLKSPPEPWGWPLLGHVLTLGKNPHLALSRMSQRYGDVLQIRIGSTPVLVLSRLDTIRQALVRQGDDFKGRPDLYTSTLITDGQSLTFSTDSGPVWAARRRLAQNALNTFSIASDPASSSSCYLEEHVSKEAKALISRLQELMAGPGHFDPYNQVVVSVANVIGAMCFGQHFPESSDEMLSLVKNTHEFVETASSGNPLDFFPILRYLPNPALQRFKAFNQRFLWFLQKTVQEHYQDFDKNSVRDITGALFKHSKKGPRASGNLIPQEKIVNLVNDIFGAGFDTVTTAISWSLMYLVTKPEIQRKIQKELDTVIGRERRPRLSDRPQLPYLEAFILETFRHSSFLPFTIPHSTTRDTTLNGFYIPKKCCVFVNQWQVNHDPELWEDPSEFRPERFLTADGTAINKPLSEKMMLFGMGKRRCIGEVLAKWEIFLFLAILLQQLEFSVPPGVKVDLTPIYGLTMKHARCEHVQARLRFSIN

[2] = target: CYP2D6 (Homo sapiens, UniProt P10635); assay: Inhibition of recombinant human CYP2D6 expressed in insect cell microsomes at 1 uM using Luciferin-ME EGE as substrate preincubated for 30 mins followed by NADPH addition measured after 45 mins by luminometric method; format: ADME; conditions: probe Luciferin-ME EGE
[3] = target: T2, CYP3A4 (Homo sapiens, UniProt P08684); assay: Inhibition of recombinant human CYP3A4 expressed in insect cell microsomes at 5 uM using Luciferin-IPA as substrate preincubated for 10 mins followed by NADPH addition measured after 10 mins by luminometric method; format: ADME; conditions: probe Luciferin-IPA
[4] = system: Mus musculus; assay: Toxicity in athymic nude mouse xenografted with human LS180 cells assessed as body weight loss at 200 mg/kg, po administered 5 days per week for 2 weeks; format: organism-based; conditions: in vivo
[5] = Terminal half life in CD1 mouse at 200 mg/kg, po administered as single dose by HPLC-MS/MS analysis; format: ADME, organism-based; conditions: in vivo, read-out: beta t1/2 (converted)
[6] = Intrinsic clearance in mouse liver […] per million cells at 1 uM after 120 mins by HPLC-MS/MS analysis; format: ADME; conditions: 2 h
[7] = species: Homo sapiens; assay: Substrate activity at recombinant human P-gp in membrane fraction assessed as increase in ATPase activity at 10 uM by luminescent P-gp-Glo assay relative to control
[8] = system: HT-1080; assay: Antiproliferative activity against human HT1080 cells after 72 hrs by sulforhodamine-B assay; format: functional, cell-based; conditions: for IC50: HT-1080, 72 h
[9] = Intrinsic clearance in mouse liver microsomes at 1 uM after 120 mins by HPLC-MS/MS analysis; format: ADME, microsome; conditions: read-out: CLH
[10] = AUC (infinity) in CD1 mouse at 200 mg/kg, po administered as single dose by HPLC-MS/MS analysis; format: ADME, organism-based; design: dose 200 mg/kg, route oral, time infinity; conditions: in vivo
[11] = target: T2, CYP3A4; assay: Inhibition of recombinant human CYP3A4 expressed in insect cell microsomes at 10 uM using Luciferin-IPA as substrate preincubated for 10 mins followed by NADPH addition measured after 10 mins by luminometric method; format: ADME; conditions: probe Luciferin-IPA
[12] = system: LS180; assay: Antitumor activity against human LS180 cells xenografted in athymic nude mouse assessed as tumor growth inhibition at 200 mg/kg, po administered 5 days per week for 2 weeks relative to vehicle-treated control; format: functional; conditions: read-out: TGI
[13] = Stability of the compound in mouse deproteinized plasma at 37 degC after 120 mins by HPLC-MS/MS analysis; format: ADME, cell-free; conditions: 2 h
[14] = target: T3, CYP2C19 (Homo sapiens, UniProt P33261); assay: Inhibition of recombinant human CYP2C19 expressed in insect cell microsomes at 1 uM using Luciferin-H EGE as substrate preincubated for 20 mins followed by NADPH addition measured after 30 mins by luminometric method; format: ADME; conditions: probe Luciferin-H EGE
[15] = Inhibition of hedgehog signaling pathway in mouse Light2 cells stimulated with 100 nM SAG after 30 hrs by Gli-firefly luciferase reporter gene assay
[16] = species: Mus musculus; assay: as above
[17] = target: T3, CYP2C19; assay: Inhibition of recombinant human CYP2C19 expressed in insect cell microsomes at 5 uM using Luciferin-H EGE as substrate preincubated for 20 mins followed by NADPH addition measured after 30 mins by luminometric method; format: ADME; conditions: probe Luciferin-H EGE
[18] = Half life in cryopreserved mouse liver microsomes at 1 uM after 120 mins by HPLC-MS/MS analysis; format: ADME, microsome
[19] = Drug recovery in mouse deproteinized plasma at 37 degC after 120 mins by HPLC-MS/MS analysis; format: ADME, cell-free; conditions: read-out: Drug recovery

T3 sequence (P33261 whole entry): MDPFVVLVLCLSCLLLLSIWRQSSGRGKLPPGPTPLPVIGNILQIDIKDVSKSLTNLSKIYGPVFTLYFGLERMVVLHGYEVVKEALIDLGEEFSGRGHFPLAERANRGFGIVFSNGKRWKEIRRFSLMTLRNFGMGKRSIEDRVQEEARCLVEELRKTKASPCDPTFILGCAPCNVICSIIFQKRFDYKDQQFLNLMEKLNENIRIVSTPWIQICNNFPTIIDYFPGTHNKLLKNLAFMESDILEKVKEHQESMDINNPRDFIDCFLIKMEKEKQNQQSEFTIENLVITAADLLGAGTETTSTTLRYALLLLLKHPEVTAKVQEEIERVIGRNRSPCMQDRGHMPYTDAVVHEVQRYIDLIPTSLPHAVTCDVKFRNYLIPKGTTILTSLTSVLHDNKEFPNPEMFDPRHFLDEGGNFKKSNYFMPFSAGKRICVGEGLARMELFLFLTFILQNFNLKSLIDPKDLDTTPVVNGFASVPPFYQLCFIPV
CYP2D6, sequence (P10635 whole entry): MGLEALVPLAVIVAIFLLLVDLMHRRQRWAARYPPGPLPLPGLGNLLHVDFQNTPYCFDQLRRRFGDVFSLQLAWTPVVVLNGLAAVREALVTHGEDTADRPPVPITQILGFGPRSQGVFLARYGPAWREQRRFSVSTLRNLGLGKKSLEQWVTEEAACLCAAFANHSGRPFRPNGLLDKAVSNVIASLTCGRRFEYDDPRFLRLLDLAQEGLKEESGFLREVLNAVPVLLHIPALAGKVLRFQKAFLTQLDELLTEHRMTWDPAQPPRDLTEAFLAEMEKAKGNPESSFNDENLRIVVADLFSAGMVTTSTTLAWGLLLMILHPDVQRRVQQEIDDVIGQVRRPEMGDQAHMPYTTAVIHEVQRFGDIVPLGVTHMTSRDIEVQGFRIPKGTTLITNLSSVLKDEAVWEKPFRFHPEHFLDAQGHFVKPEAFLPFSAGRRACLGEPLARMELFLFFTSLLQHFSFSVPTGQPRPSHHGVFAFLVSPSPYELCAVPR
T2 sequence (P08684 whole entry): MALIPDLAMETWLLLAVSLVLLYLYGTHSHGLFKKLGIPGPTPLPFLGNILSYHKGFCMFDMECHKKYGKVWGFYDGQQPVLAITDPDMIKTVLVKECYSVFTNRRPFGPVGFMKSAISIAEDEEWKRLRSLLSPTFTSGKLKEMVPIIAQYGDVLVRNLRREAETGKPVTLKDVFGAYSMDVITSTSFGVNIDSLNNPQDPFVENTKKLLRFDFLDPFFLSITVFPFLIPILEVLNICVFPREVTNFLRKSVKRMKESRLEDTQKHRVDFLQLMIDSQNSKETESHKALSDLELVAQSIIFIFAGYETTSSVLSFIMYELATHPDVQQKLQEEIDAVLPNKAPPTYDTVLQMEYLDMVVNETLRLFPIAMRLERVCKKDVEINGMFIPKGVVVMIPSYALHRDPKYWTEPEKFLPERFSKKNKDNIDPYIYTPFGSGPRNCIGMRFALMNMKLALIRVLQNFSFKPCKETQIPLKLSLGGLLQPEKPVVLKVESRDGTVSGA

inhibition at 0.5 h, 5 µM [1] [%]	inhibition at 0.75 h, 1 µM [2] [%]	inhibition at 10 min, 5 µM [3] [%]	half-life [5] [h]	CLH [6] [µL/min]	fold change (FC) [7]	IC50 [8] [nM]	CLint scaled at 1 µM [9] [mL/min/kg]	AUC(0-inf) [10] [µg·h/mL]	inhibition at 10 min, 10 µM [11] [%]	Stability [13]	inhibition at 0.5 h, 1 µM [14] [%]	IC50 [15] [nM]	inhibition at 0.5 h, 5 µM [17] [%]	half-life at 1 µM [18] [min]	remaining at 2 h [19] [%]	SMILES	Activity [4]	Activity [8]	inhibition in vivo at 200 mg/kg [12] [%]	inhibition [16]
43	15	89	2.5	286	1.4	2000	756	137	92	Stable	67	20	81	8.07	–	COc1cc(C(=O)NC(=N)Nc2ccc(C)c(NC(=O)c3ccc(CCc4ccccc4)cc3)c2)cc(OC)c1OC.Cl	Non-Toxic	Dose-dependent effect	48	Dose-dependent effect
64	19	76	2.4	–	4.8	29000	–	237	87	–	57	70	79	–	83	COc1cc(C(=O)NC(=N)Nc2ccc(C)c(NC(=O)c3ccc(-c4ccccc4)cc3)c2)cc(OC)c1OC.Cl	–	Dose-dependent effect	–	Dose-dependent effect
58	20	78	2.6	–	2.3	20000	–	224	82	Stable	59	50	76	–	–	COc1cc(C(=O)NC(=N)Nc2ccc(C)c(NC(=O)c3ccc(-c4ccc(F)cc4)cc3)c2)cc(OC)c1OC.Cl	–	Dose-dependent effect	–	Dose-dependent effect
